Holding throughout (format): cell-based, human
The test system of one test is P53. Description: RT-qPCR P53 mRNA in MCF7. The note with it: MCF7, vs negative control. The method, then: (§1) All of the extractions were conducted on ice with ice-cold reagents. Total RNA from the different cell lines was isolated using Trizol (Invitrogen; Life Technologies, USA) according to the method of Sthoeger et al.. The 260:280 ratios were measured to determine RNA quality after the isolation method was completed according to the manufacturer’s instructions. A high-capacity cDNA reverse transcription kit was used to produce complementary DNA (cDNA) (Applied Biosystems, USA). […] The relative gene expression method (i.e., ΔΔCT) was used to analyze the real-time PCR data, as explained in Applied Biosystem User Bulletin No. 2. Each sample and gene were normalized using the β-actin gene.
On the technique in general: In qPCR the cycle at which signal appears reflects the starting amount.

The next test concerns Bcl-2. Description: RT-qPCR Bcl-2 mRNA in MCF7. Conditions: MCF7, vs negative control. How it is done:
as §1

The subject of the next test is BAX. The test is described as follows: ELISA BAX in MCF7 cells. Conditions: MCF7 cells treated with IC50; untreated control 4.92. An excerpt:
(§2) Elisa assay was used to determine the concentrations of Human caspases-3, -8, Bax, and Bcl2 in PACA2- and A549-treated cells. Also, the concentrations of caspase-8, Bax, and Bcl2 in MCF7-treated cells were detected. The procedures were followed up according to the instructions described in the following kits; Invitrogen human Caspase-3 Elisa Kit, Catalog KHO1091, DRG® human Caspase-8 ELISA Kit, Catalog (EIA-4863), Human Bax ELISA Kit (ab199080) and Human Bcl-2 ELISA Kit (ab119506) respectively. Shortly, the protocol described in the above kits was as followed; at the beginning, all the reagents, samples and standards were prepared. 100 μl of samples or standard were micro pipetted to each well of micro-well strip and kept at room temperature for 2 h. After washing the micro-well strips three times with washing buffer, the prepared antibody (anti-rabbit-IgG-HRP) at a concentration of 100 μl was added to each well at room temperature for 1 h. Then, the micro-well strips were washed again three times. Afterward, the prepared tetramethyl-benzidine (TMB) solution (100 μl) was added to the micro-well strips and kept for 10 min. At last, about 50 μl of stop solution was pipetted to each well to inactivate the enzyme completely. The absorbance of all samples was measured at a wavelength of 460 nm and compared to that of the standard. Curve fitting software was used to plot a standard curve and the concentrations for the unknown samples were measured from the standard curve.
A general note: ELISA stands for enzyme-linked immunosorbent assay.

Test [1] concerns breast cancer cell line (MCF-7). The test is described as follows: DNA fragmentation assay, MCF7. Conditions: MCF7, IC50, 24 h, vs negative control (P < 0.01); order 14a > 18b > positive > 16b > 14b. The method, then:
The DNA fragmentation assay in a pancreatic cell line (Paca2), breast cancer cell lines (MCF-7) and lung cell line (A549) was performed in concordance with the premises established by Yawata with some modifications. Briefly, after 24 h of exposure of Paca2, MCF-7 and A549 cancer cell lines to the prepared compounds in different Petri dishes (60 × 15 mm, Greiner), the cells were suspended and homogenized in 1 ml of medium and then centrifuged for 10 min at 900 rpm. The genomic DNA was extracted as shown in Yawata. About 1 × 10^6 cells of each tested cancer cell line were treated with the IC50 values of the tested compounds. All the cells were collected via trypsinization and washed with Dulbecco`s Phosphate Buffered Saline. Then, the cells were treated with the lysis buffer containing 5 mM ethylenediaminetetraacetic acid (EDTA), 10 mM Tris (pH 7.4), 0.5% Triton X-100 and 150 mM NaCl for 35 min on ice. After that, the lysates were vortexed and centrifuged for 20 min at 10.000 xg. The fragmented DNA was extracted from the supernatant with an equal volume of isoamyl alcohol: chloroform: neutral phenol mixture (1:24:25). Finally, the percentage of fragmented DNA was determined by performing gel electrophoresis using 2% agarose gel containing 0.1 μg/ml ethidium bromide.
Pancreatic cancer cell line (Paca2), breast cancer cell line (MCF-7) and lung cancer cell line (A549) were used to determine the percentage of DNA fragmentation after the treatment with IC50 of the tested compounds. The selected cells were suspended in 0.5 ml of lysis buffer containing 1 mM EDTA, 10 mM Tris–HCl (pH 8) and 0.2% triton X-100. Then, the cells were centrifuged at 10.000 rpm for 20 min at 4 °C. After removing the supernatant, the pellets were re-suspended in 0.5 ml of lysis buffer. Then, 0.5 ml of 25% tri-chloroacetic acid (TCA) was added to the pellets (P) and the supernatants (S), and incubated for 24 h at 4 °C. Afterwards, the cells were centrifuged at 4 °C for 25 min at 10,000 rpm and the pellets were suspended in […] of 5% TCA, followed by incubation at 80 °C for 20 min. Finally, […] of Diphenyl Amine (DPA) solution [[…] of sulfuric acid, 150 mg DPA in 10 ml glacial acetic acid, and […] acetaldehyde (16 mg/ml)] was added to each cell sample and kept at room temperature for 24 h. The percentage of fragmented DNA was measured from the absorbance reading at 600 nm wavelength using the following formula:
% Fragmented DNA = [OD(S)/[OD(S) + OD(P)] × 100 (OD: optical density, S: supernatant, P: pellet).

In another test the test system is IL-8. Description: RT-qPCR IL-8 mRNA in MCF7. The note with it: MCF7, vs negative control. How it is done: as §1
The test system of a further test is caspase 8. The test is described as follows: ELISA caspase 8 in MCF7 cells. The note with it: MCF7 cells treated with IC50; untreated control 3.99.
Excerpt: as §2

For a further test, the system named is DR5. Description: RT-qPCR DR5 mRNA in MCF7. The note with it: MCF7, vs negative control. The method, then: as §1

The structures appear in SMILES notation. Entries after “also recorded” stand apart in the source; their conditions may differ.

Turning to `NNc1ncnc2c1c(-c1ccc(Br)cc1)c(Cl)n2-c1ccc(Cl)cc1Cl` [Compound 14a, 5-(4-bromophenyl)-6-chloro-7-(2,4-dichlorophenyl)-4-hydrazineyl-7H-pyrrolo[2,3-d]pyrimidine], in the test with P53, the “P53 mRNA level” value is recorded as “significantly increased; also recorded: up-regulated”. Besides, the “Bcl-2 mRNA level” value in the test on Bcl-2 is on record as “down-regulated”. In addition, in the test on BAX, the “BAX level (ELISA)” value amounted to 9.99 pg/mL. For the same compound, the DNA fragmentation rate entry in test [1] is “increased significantly”. The “IL-8 mRNA level” value in the test on IL-8 is “lowered; also recorded: down-regulated”. The “caspase 8 level (ELISA)” value with caspase 8 came to 8.76 pg/mL. For the same compound, in the test on DR5, the “DR5 mRNA level” value is recorded as “increased; also recorded: up-regulated”.
Consider `COc1ccc(-c2c(Cl)n(-c3ccc(Cl)cc3Cl)c3ncnc(NN)c23)cc1OC` [Compound 14b, 6-chloro-7-(2,4-dichlorophenyl)-5-(3,4-dimethoxyphenyl)-4-hydrazineyl-7H-pyrrolo[2,3-d]pyrimidine], for which the “P53 mRNA level” value in the test on P53 is “significantly increased; also recorded: up-regulated”. Moreover, the “Bcl-2 mRNA level” value in the test on Bcl-2 was “down-regulated”. In the test with BAX, the “BAX level (ELISA)” value was found to be 14.25 pg/mL. Also, the DNA fragmentation rate entry in test [1] is “increased significantly”. Further, the “IL-8 mRNA level” value in the test on IL-8 is on record as “lowered; also recorded: down-regulated”. Further, the “caspase 8 level (ELISA)” value in the test on caspase 8 worked out at 18.263 pg/mL. For the same compound, the “DR5 mRNA level” value with DR5 was “increased; also recorded: up-regulated”.
`COc1ccc(-c2c(Cl)n(-c3ccc(Cl)cc3Cl)c3ncnc(N4CCN(C)CC4)c23)cc1OC` [Compound 16b, 6-chloro-7-(2,4-dichlorophenyl)-5-(3,4-dimethoxyphenyl)-4-(4-methylpiperazin-1-yl)-7H-pyrrolo[2,3-d]pyrimidine]: the “P53 mRNA level” value in the test with P53 is recorded as “up-regulated; also recorded: significantly increased”. For the same compound, the “Bcl-2 mRNA level” value with Bcl-2 is given as “down-regulated”. In addition, the “BAX level (ELISA)” value in the test on BAX is 13.25 pg/mL. The DNA fragmentation rate result in test [1] is “increased significantly”. In addition, in the test with IL-8, the “IL-8 mRNA level” value was “lowered”. The “caspase 8 level (ELISA)” value in the test with caspase 8 was 14.72 pg/mL. The “DR5 mRNA level” value with DR5 is recorded as “increased”.
Regarding `COc1ccc(-c2c(Cl)n(-c3ccc(Cl)cc3Cl)c3ncnc(N4CCOCC4)c23)cc1OC` [Compound 18b, 4-(6-chloro-7-(2,4-dichlorophenyl)-5-(3,4-dimethoxyphenyl)-7H-pyrrolo[2,3-d]pyrimidin-4-yl)morpholine], in the test with P53, the “P53 mRNA level” value is “significantly increased; also recorded: up-regulated”. Also, the “Bcl-2 mRNA level” value with Bcl-2 is reported as “down-regulated”. Besides, the “BAX level (ELISA)” value in the test on BAX is 7.25 pg/mL. Further, in test [1], the DNA fragmentation rate entry is reported as “increased significantly”. Further, the “IL-8 mRNA level” value in the test on IL-8 is on record as “lowered; also recorded: down-regulated”. Also, in the test on caspase 8, the “caspase 8 level (ELISA)” value was 10.29 pg/mL. The “DR5 mRNA level” value in the test on DR5 was “increased; also recorded: up-regulated”.
`COc1cccc2c1C(=O)c1c(O)c3c(c(O)c1C2=O)C[C@@](O)(C(=O)CO)C[C@@H]3O[C@H]1C[C@H](N)[C@H](O)[C@H](C)O1` [Dox, Doxorubicin, reference compound]: the “P53 mRNA level” value with P53 is given as “up-regulated”. Also, the “Bcl-2 mRNA level” value in the test with Bcl-2 is “down-regulated”. Besides, the “IL-8 mRNA level” value in the test on IL-8 was “lowered”. For the same compound, the “DR5 mRNA level” value in the test on DR5 was “increased”.
